What all share (assay type): cell-based
For assay [1], the system named is Glioblastoma cell line U87 cells. Kind of assay: MTT cell viability assay, glioblastoma cells. The settings on record: for IC50: U87 glioblastoma cells, MTT after three days. As to the method:
(§1) Different concentration of compounds were added to the cells. Three days later, a MTT assay (Sigma) was performed to monitor cell viability.
(§2) In this example, samples of glioblastoma cells (U87) and astrocyte cells (non-cancer control) were exposed various disclosed compounds to determine the effectiveness of the compounds for inhibiting cell growth.

Assay [2] relates to Immortalized human astrocytes. Kind of assay: MTT cell viability assay, astrocytes (non-cancer control). The settings on record: for IC50: immortalized human astrocytes, MTT after three days. As to the method:
as §1, §2

In assay [3] the target is T1, AVIL protein binding to actin (Homo sapiens, UniProt O75366).
T1 construct: expressed in transfected cells; host or cells: 293T cells
T1 sequence (O75366 1-819): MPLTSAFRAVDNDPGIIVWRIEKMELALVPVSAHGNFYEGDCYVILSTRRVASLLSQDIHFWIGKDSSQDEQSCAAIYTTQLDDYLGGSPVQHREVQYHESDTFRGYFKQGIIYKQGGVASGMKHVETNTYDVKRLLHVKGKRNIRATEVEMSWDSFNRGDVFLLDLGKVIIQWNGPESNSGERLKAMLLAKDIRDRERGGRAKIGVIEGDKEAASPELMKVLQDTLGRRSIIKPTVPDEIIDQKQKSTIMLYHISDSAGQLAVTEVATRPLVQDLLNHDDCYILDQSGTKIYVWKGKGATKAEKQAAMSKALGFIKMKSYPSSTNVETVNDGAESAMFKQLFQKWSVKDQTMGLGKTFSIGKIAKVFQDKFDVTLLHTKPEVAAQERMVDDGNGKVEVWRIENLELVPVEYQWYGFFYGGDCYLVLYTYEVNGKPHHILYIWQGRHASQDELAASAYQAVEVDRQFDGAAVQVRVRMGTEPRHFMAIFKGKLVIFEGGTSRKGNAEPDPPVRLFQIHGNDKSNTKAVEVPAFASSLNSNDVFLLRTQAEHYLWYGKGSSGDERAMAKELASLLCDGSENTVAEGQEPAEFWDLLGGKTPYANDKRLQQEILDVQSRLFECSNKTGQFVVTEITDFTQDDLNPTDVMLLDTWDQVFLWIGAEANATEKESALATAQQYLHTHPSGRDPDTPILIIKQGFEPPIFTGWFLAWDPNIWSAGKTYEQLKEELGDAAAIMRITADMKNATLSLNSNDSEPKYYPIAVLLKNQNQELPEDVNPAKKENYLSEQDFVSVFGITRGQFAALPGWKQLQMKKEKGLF
Kind of assay: Immunoprecipitation (MYC antibody) and Western blot (β-actin antibody) in 293T cells transfected with MYC tagged AVIL. Particulars: IC50 dose, 24 hrs, FIGS. 2A and 2B. As to the method:
293T cells were first transfected with MYC tagged AVIL. After 24 hrs, the cells were treated with the IC50 dose of the five compounds for 24 hrs. Immunoprecipitation was performed with MYC antibody, and Western blot was performed with β-actin antibody.
293T cells were first transfected with MYC tagged AVIL as follows: transfect pQCXIH-myc-AVIL plasmid in 6 well plate of 293T for 48 hrs. 200 ul opti-medium+7 ul GeneCellin (Polyplus transfection Co.)+4 ug plasmids in each well. Transfected AVIL cells were treated with the IC50 dose of the test compounds for 24 hrs. Protein extract was then prepared on ice by adding 1 ml IP lysis buffer+protease inhibitor+cocktail+PMSF, and let stand on ice for 30 min. Cells were then scraped into EP tubes and sonicated continuously for 5 sec with power setting 3. Tubes were then centrifuged in 4° C. at 13000 rpm for 20 min, and the upper aqueous phase was then transferred to pre-chilled tubes. Protein concentration was then determined using Bio-Rad protein assay. Preclear cell extracts were treated with 50 ul ProteinG/Sepharose per my lysate for 1 hr. Then 500 ug precleared cell extracts were taken and adjusted to 500 ul with lysis buffer for 2 ug myc antibody or IgG control and incubated at 4° C. overnight. Then, 25 ul ProteinG/Sepharose beads were added and incubated at 4° C. overnight. Beads were then washed four times with 1 ml IP wash buffer for 3 min, and spun at 1000 rpm to pellet beads. All wash buffer was removed with pipette, and 20 ul 2×SDS loading buffer was added and then boiled at 95° C. for 10 min to denature. This was centrifuged at 12000 rpm for 30 sec., and the supernatant was then transferred to a fresh tube and load for SDS-PAGE.
Western blot was performed with R-actin antibody. To measure protein levels, cell lysates were resolved by denaturing gel electrophoresis, before electrotransfer to a Protran nitrocellulose membrane. The membrane was subjected to western blot analysis with antibodies against the proteins of interest. The following antibodies and dilutions were used: rabbit anti-AVIL (1:2000; Sigma SAB2100191).

The test system of another assay is LIN28B. Kind of assay: LIN28B gene expression by qRT-PCR in U87 cells. Particulars: IC50 concentration, relative to GAPDH, FIG. 3. As to the method:
U87 cells were treated at the IC50 concentration of the five test compounds. Cells were harvested. RNA was extracted using TRIzol reagent (Invitrogen) and quantified with Nanodrop (Thermo). cDNA was generated by AMV-RT kit (NEB), and a random hexamer primer. Real-time qPCR was carried out on the StepOne Plus system from Applied Biosystems using SYBR mix (Thermo). LIN28B expression was measured by qRT-PCR and is represented relative to GAPDH levels. […] The following primers were used for […] and GAPDH amplifications: […]

[4] abbreviates: Homo sapiens, U-87 MG, 72 h, value in nM.

Read-outs that look alike come from different tables or passages of the source.

`Cc1nc(N)nc(N2CCCC(CO)(CCCc3ccccc3)C2)c1C` (stereo not drawn) [PLH1252, (1-(2-Amino-5,6-dimethylpyrimidin-4-yl)-3-(3-phenylpropyl)piperidin-3-yl)methanol]: the “concentration at which most if not all of the U87 cells were wiped out” value in assay [1] (FIG. 1 cell survival curves, U87) is listed as “less than 1 μM”. Also, the 50% inhibitory concentration (IC50) is about 1000 nM in assay [1] (Homo sapiens, U-87 MG, 72 h); about 600 nM in assay [1] (setting [4]); 45 µM in assay [2] (Homo sapiens, Astrocyte, 72 h); about 80 µM in assay [2] (read-out: IC50 (astrocyte)). In assay [2] (FIG. 1 cell survival curves, astrocytes, varied doses), the effect on astrocytes entry was “no significant effect”. For the same compound, the “disruption of AVIL protein binding to actin” value (“disruption” for short) in assay [3] is reported as “disruption of AVIL protein binding to actin”. For the same compound, in the assay with LIN28B, the “down-regulation of LIN28B gene expression” value (shortened to “down-regulation”) is listed as “down-regulation of LIN28B gene expression”.

As to `Nc1nccc(N2CCCC(C(=O)NCc3ccccc3)C2)n1` (stereo not drawn) [PLH1290, 1-(2-Aminopyrimidin-4-yl)-N-benzylpiperidine-3-carboxamide], the IC50 is over 80000 nM in assay [1] (Homo sapiens, U-87 MG, 72 h) and over 80 µM in assay [2] (Homo sapiens, Astrocyte, 72 h).

In the case of `OCC1(CCCc2ccccc2)CCCN(c2ccccn2)C1` (stereo not drawn) [PLH1291, (3-(3-Phenylpropyl)-1-(pyridin-2-VI)piperidin-3-VI)methanol], the IC50 in assay [1] (Homo sapiens, U-87 MG, 72 h) is 14000 nM; in assay [2] (Homo sapiens, Astrocyte, 72 h), over 80 µM.

On to `O=Cc1c(Cl)ncnc1N1CCCC(CO)(CCCc2ccccc2)C1` (stereo not drawn) [PLH1293], for which the IC50 in assay [1] (Homo sapiens, U-87 MG, 72 h) turned out to be 8000 nM; in assay [2] (Homo sapiens, Astrocyte, 72 h), 18 µM.

With `OCC1(CCCc2ccccc2)CCCN(c2ncnc3ccccc23)C1` (stereo not drawn) [PLH1295, (3-(3-Phenylpropyl)-1-(quinazolin-4-yl)piperidin-3-yl)methanol], the IC50 in assay [1] (Homo sapiens, U-87 MG, 72 h) was under 1000 nM; in assay [1] (setting [4]), 500 nM; in assay [2] (Homo sapiens, Astrocyte, 72 h), 22 µM; in assay [2] (read-out: IC50 (astrocyte)), 30 µM. Also, in assay [3], the “disruption” value is given as “disruption of AVIL protein binding to actin”. For the same compound, the “down-regulation” value in the assay with LIN28B is recorded as “down-regulation of LIN28B gene expression”.

Turning to `COc1c(Cl)ncnc1N1CCCC(CO)(CCCc2ccccc2)C1` (stereo not drawn) [PLH1302, (1-(6-Chloro-5-methoxypyrimidin-4-yl)-3-(3-phenylpropyl)piperidin-3-yl)methanol], the IC50 is about 2500 nM in assay [1] (Homo sapiens, U-87 MG, 72 h); 2300 nM in assay [1]; about 20 µM in assay [2] (Homo sapiens, Astrocyte, 72 h); 10 µM in assay [2] (read-out: IC50 (astrocyte)).

Take `Nc1nccc(N2CCCC(CO)(CCc3ccccc3)C2)n1` (stereo not drawn) [PLH1304, (1-(2-Aminopyrimidin-4-yl)-3-phenethylpiperidin-3-yl)methanol]: the IC50 in assay [1] (Homo sapiens, U-87 MG, 72 h) was 3830 nM; in assay [2] (Homo sapiens, Astrocyte, 72 h) it was about 80 µM.

With `CCc1ncnc(N2CCCC(CO)(CCCc3ccccc3)C2)c1F` (stereo not drawn) [PLH2002, (1-(6-Ethyl-5-fluoropyrimidin-4-yl)-3-(3-phenylpropyl)piperidin-3-yl)methanol], the IC50 in assay [1] (Homo sapiens, U-87 MG, 72 h) is 1500 nM; in assay [2] (Homo sapiens, Astrocyte, 72 h), 1.1 µM.

In the case of `Nc1ccnc(N2CCCC(CO)(CCCc3ccccc3)C2)n1` (stereo not drawn) [PLH2006, (1-(4-Aminopyrimidin-2-yl)-3-(3-phenylpropyl)piperidin-3-yl)methanol], the IC50 is over 80000 nM in assay [1] (Homo sapiens, U-87 MG, 72 h) and over 80 µM in assay [2] (Homo sapiens, Astrocyte, 72 h).

With `Nc1nccc(N2CCCC(COCc3ccccc3)C2)n1` (stereo not drawn) [PLH2027, 4-(3-((Benzyloxy)methyl)piperidin-1-yl)pyrimidin-2-amine], the IC50 in assay [1] (Homo sapiens, U-87 MG, 72 h) is about 50000 nM; in assay [2] (Homo sapiens, Astrocyte, 72 h), about 80 µM.

In the case of `Nc1nccc(N2CCC[C@H](COCc3ccccc3)C2)n1` [PLH2032, (S)-4-(3-((Benzyloxy)methyl)piperidin-1-yl)pyrimidin-2-amine], the IC50 in assay [1] (Homo sapiens, U-87 MG, 72 h) is 4300 nM; in assay [2] (Homo sapiens, Astrocyte, 72 h), about 40 µM.

As for `Nc1nccc(N2CCC[C@@H](COCc3ccccc3)C2)n1` [PLH2040, (R)-4-(3-((Benzyloxy)methyl)piperidin-1-yl)pyrimidin-2-amine], the half-maximal inhibitory concentration (IC50) in assay [1] (Homo sapiens, U-87 MG, 72 h) was 2800 nM; in assay [2] (Homo sapiens, Astrocyte, 72 h), over 80 µM.

With `Cc1ncnc(N2CCCC(CO)(CCCc3ccccc3)C2)c1C` (stereo not drawn) [PLH2056, (1-(5,6-Dimethylpyrimidin-4-yl)-3-(3-phenylpropyl)piperidin-3-yl)methanol], the IC50 is under 2500 nM in assay [1] (Homo sapiens, U-87 MG, 72 h) and about 80 µM in assay [2] (Homo sapiens, Astrocyte, 72 h). In addition, the “disruption” value in assay [3] is listed as “disruption of AVIL protein binding to actin”. Further, the “down-regulation” value in the assay with LIN28B is given as “down-regulation of LIN28B gene expression”.

In the case of `OCC1(CCCc2ccccc2)CCCN(c2ccncn2)C1` (stereo not drawn) [PLH2062, (3-(3-Phenylpropyl)-1-(pyrimidin-4-VI)piperidin-3-yl)methanol], the IC50 is about 30000 nM in assay [1] (Homo sapiens, U-87 MG, 72 h) and over 80 µM in assay [2] (Homo sapiens, Astrocyte, 72 h).

With `Cc1c(-c2ccccc2)ncnc1N1CCCC(CO)(CCCc2ccccc2)C1` (stereo not drawn) [PLH2063, (1-(5-methyl-6-phenylpyrimidin-4-yl)-3-(3-phenylpropyl)piperidin-3-yl)methanol], the IC50 in assay [1] (Homo sapiens, U-87 MG, 72 h) is about 80000 nM; in assay [2] (Homo sapiens, Astrocyte, 72 h), about 80 µM.

With `c1ccc(COCC2CCCN(c3ncnc4ccccc34)C2)cc1` (stereo not drawn) [PLH2069, 4-(3-((Benzyloxy)methyl)piperidin-1-yl)quinazoline], in assay [3], the “disruption” value is “disruption of AVIL protein binding to actin”. In the assay on LIN28B, the “down-regulation” value was “down-regulation of LIN28B gene expression”.

Regarding `OCC1(CCCc2ccccc2)CCCN(c2ncnc3cc(Cl)ccc23)C1` (stereo not drawn) [PLH2074, (1-(7-Chloroquinazolin-4-yl)-3-(3-phenylpropyl)piperidin-3-yl)methanol], the half-inhibitory concentration (IC50) in assay [1] (Homo sapiens, U-87 MG, 72 h) is about 2000 nM; in assay [2] (Homo sapiens, Astrocyte, 72 h), about 15 µM.
